± gives the expanded uncertainty stated by the source.

The conditions of this data set: 101.33 kPa, Liquid, Vibrating tube method.

A word on the mass density: it is mass per unit of volume. For the compound `CCC[n+]1cccc(C)c1.O=S(=O)([N-]S(=O)(=O)C(F)(F)F)C(F)(F)F`, the mass density (278.15 K) is given as 1467.23 ± 80 kg/m3; the mass density (283.15 K) was found to be 1462.43 ± 80 kg/m3; the mass density (288.15 K) stood at 1457.62 ± 80 kg/m3; the mass density (293.15 K) is 1452.81 ± 80 kg/m3; the mass density (298.15 K) is recorded as 1448.03 ± 80 kg/m3; the mass density (303.15 K) worked out at 1443.28 ± 80 kg/m3. The mass density is, setting by setting: (308.15 K) 1438.54 ± 80 kg/m3; (313.15 K) 1433.81 ± 80 kg/m3; (318.15 K) 1429.11 ± 80 kg/m3; (323.15 K) 1424.43 ± 80 kg/m3; (328.15 K) 1419.79 ± 80 kg/m3; (333.15 K) 1415.16 ± 80 kg/m3. Besides, the mass density runs as follows: (338.15 K) 1409.8 ± 80 kg/m3; (343.15 K) 1405.96 ± 80 kg/m3; (348.15 K) 1401.4 ± 80 kg/m3; (353.15 K) 1396.85 ± 80 kg/m3.
In the case of `C[n+]1ccn(CCCCS(=O)(=O)O)c1.O=S(=O)([N-]S(=O)(=O)C(F)(F)F)C(F)(F)F`, the mass density stood at 1597.92 ± 80 kg/m3 (283.15 K); 1592.96 ± 80 kg/m3 (288.15 K); 1587.85 ± 80 kg/m3 (293.15 K); 1582.58 ± 80 kg/m3 (298.15 K); 1577.87 ± 80 kg/m3 (303.15 K); 1573.18 ± 80 kg/m3 (308.15 K). Besides, the mass density amounted to 1568.52 ± 80 kg/m3 (313.15 K); 1563.87 ± 80 kg/m3 (318.15 K); 1559.23 ± 80 kg/m3 (323.15 K); 1554.6 ± 80 kg/m3 (328.15 K); 1550.01 ± 80 kg/m3 (333.15 K); 1545.56 ± 80 kg/m3 (338.15 K). Further, the mass density (343.15 K) worked out at 1541.12 ± 80 kg/m3, the mass density (348.15 K) is recorded as 1536.68 ± 80 kg/m3 and the mass density (353.15 K) was 1532.23 ± 80 kg/m3.
On to `CC(O)C(=O)[O-].CCn1cc[n+](C)c1` [1-ethyl-3-methylimidazolium lactate], for which the mass density was determined as 1157.45 ± 7.3 kg/m3 (278.15 K); 1153.47 ± 7.2 kg/m3 (283.15 K); 1149.77 ± 7.2 kg/m3 (288.15 K); 1146.11 ± 7.1 kg/m3 (293.15 K); 1142.46 ± 7.1 kg/m3 (298.15 K); 1138.89 ± 7 kg/m3 (303.15 K). Further, the mass density was 1135.43 ± 7 kg/m3 (308.15 K); 1131.95 ± 7 kg/m3 (313.15 K); 1128.51 ± 6.9 kg/m3 (318.15 K); 1125.07 ± 6.9 kg/m3 (323.15 K); 1121.67 ± 6.8 kg/m3 (328.15 K); 1118.51 ± 6.8 kg/m3 (333.15 K). In addition, the mass density was found to be 1117.98 ± 6.8 kg/m3 (338.15 K), 1111.66 ± 6.7 kg/m3 (343.15 K), 1108.39 ± 6.7 kg/m3 (348.15 K) and 1105.14 ± 6.6 kg/m3 (353.15 K).
Regarding `C[n+]1ccn(CCCCS(=O)(=O)O)c1.O=S(=O)([O-])O` [1-methyl-3-(4-sulfobutyl)-imidazolium hydrogensulfate], the mass density (283.15 K) was determined as 1450.3 ± 80 kg/m3; the mass density (288.15 K) amounted to 1447.02 ± 80 kg/m3; the mass density (298.15 K) is listed as 1437.08 ± 80 kg/m3; the mass density (303.15 K) came out at 1433.68 ± 80 kg/m3; the mass density (313.15 K) is listed as 1426.76 ± 80 kg/m3; the mass density (323.15 K) came to 1420.51 ± 80 kg/m3. Further, the mass density (333.15 K) came out at 1414.28 ± 80 kg/m3, the mass density (343.15 K) is 1408.07 ± 80 kg/m3 and the mass density (353.15 K) is 1401.8 ± 80 kg/m3.

Values taken from the NIST ThermoML archive (doi:10.1016/j.fluid.2016.03.009).
